Key:
[1] = cited from earlier work
[2] = glucose levels in blood, streptozocin-induced diabetes type I model; type: in vivo, rat; settings: for effect on glucose level in the blood: diabetic rats (streptozocin 70 mg/Kg), conjugate subcutaneous
Experimental: 3.00 g of the aldehyde derivative of HA (activated intermediate) according to Example 1 are dissolved at a concentration of 10 mg/ml in an acid environment by the presence of phosphoric acid at a temperature of 60° C. for 2 hours. 4×10^−5 moles of insulin, 4×10^−1 moles of cyanoborohydride are added to the hydrolyzed product previously cooled and the pH is regulated to 6.0. After 24 h of reaction, the adduct is purified and analyzed via dimensional exclusion chromatography; the relative chromatogram is visible in FIG. 8. The activity in vivo of the conjugate is evaluated on a model of induced diabetes type I in a rat after administration of streptozocin at a dose of 70 mg/Kg.
The HA-Insulin conjugate is administered subcutaneously at a dose of 5 or 20 μg of equivalent insulin. The biological activity of the conjugate is tested through the determination of the glucose levels in the blood of animals, measured by means of commercial kits (OneTouch® II, LifeScan, Johnson & Johnson), The control consists of healthy rats (group 1) and rats with induced diabetes treated with insulin (group 2). The results are illustrated in FIG. 9.

[3] = test system: cyclic 2′,3′-cytidine monophosphate (2′,3′-CMC); experiment: residual enzymatic activity of RNAse A, free or bound to HA (absorption increase at 287 nm); type: biochemical; settings: hydrolysis of 2′,3′-CMC, absorption at 287 nm
Experimental: 1.00 g of the aldehyde derivative of HA according to Example 1 are dissolved at a concentration of 8 mg/ml in an acid environment by the presence of phosphoric acid at a temperature of 50° C. for 2 hours. The pH is regulated to 6.0 and 2×10^−5 moles of RNAse A and 2×10^−1 moles of cyanoborohydride are added to the hydrolyzed product previously cooled. At this pH the reaction takes place specifically at the N-terminal end of the protein. After 24 h of reaction, the adduct is purified by dialysis against water and then freeze-dried. The corresponding GPC chromatogram registered under the conditions described in Example 14 can be found in FIG. 7. This type of conjugate is optimally suitable for measuring in vitro the residual activity of the enzyme, using a specific kit based on the evaluation of the absorption increase at 287 nm with time, determined by hydrolysis of the specific synthetic substrate cyclic 2′,3′-cytidine monophosphate (2′,3′-CMC).
A comparison of the residual activity of the enzyme, free or bound to HA, produces the following results: […]

For Calcitonin, the absorption half-life [1] is given as 10 to 15 min and the elimination half-life [1] is given as 50 to 80 min.

For “HA-Insulin: hyaluronic acid aldehyde derivative conjugated to insulin”, the “effect on glucose level in the blood” value ([2]; 5 or 20 μg equivalent insulin) was “exerted more slowly, but has a considerably prolonged duration with time”, the “effectiveness relative to the conjugated drug (insulin)” value ([2]; diabetic rats, subcutaneous) was “doubling the effectiveness” and the “time span to bring glucose to a lower level than the group treated with insulin alone” value ([2]; diabetic rats, subcutaneous, 5 or 20 μg equivalent insulin) was no more than 5 h. For the same molecule, the “duration for which the glucose lowering effect is maintained” value ([2]; diabetic rats, subcutaneous, duration of the experiment) was 24 h.

For “insulin: free insulin, control treatment of diabetic rats [reference compound]”, the “effect on glucose level in the blood” value ([2]; 5 or 20 μg equivalent insulin) was “sudden decrease in the glucose level in the blood, which however returns to high values in a relatively rapid time scale”.

B1: RNAsi A: free enzyme RNAse A (protein, UniProt P61823 27-150, looked up)
Ribonuclease pancreatic: KETAAAKFERQHMDSSTSAASSSNYCNQMMKSRNLTKDRCKPVNTFVHESLADVQAVCSQKNVACKNGQTNCYQSYSTMSITDCRETGSSKYPNCAYKTTQANKHIIVACEGNPYVPVHFDASV
In the case of B1, the “% Relative enzymatic activity” value [3] is reported as 100%.

B2: HA-Ac-RNAsi A: hyaluronic acid aldehyde derivative conjugated to RNAse A at the N-terminal end (conjugate, UniProt P61823 27-150, looked up)
Ribonuclease pancreatic: KETAAAKFERQHMDSSTSAASSSNYCNQMMKSRNLTKDRCKPVNTFVHESLADVQAVCSQKNVACKNGQTNCYQSYSTMSITDCRETGSSKYPNCAYKTTQANKHIIVACEGNPYVPVHFDASV
modifications: hyaluronic acid aldehyde conjugate
notes: hyaluronic acid aldehyde derivative conjugated to RNAse A at the N-terminal end
With B2 the “% Relative enzymatic activity” value [3] was 95.23%.

Source: patent publication US9034624B2, “Process for the synthesis of conjugates of glycosaminoglycanes (GAG) with biologically active molecules, polymeric conjugates and relative uses thereof” (FIDIA FARMACEUTICI S.P.A., priority 2009, dated 2015)
